According to patent US11795510B2, “Identification of epigenomic reprogramming in cancer and uses thereof” (The Johns Hopkins University, priority 2016, dated 2023):
Entries after “also recorded” stand apart in the source; their conditions may differ.

Tests used:
[1] = test system: CDH2 and TOP2B expression; experiment: Real-time RT-PCR of CDH2 and TOP2B; format: cell-based, human
Description: Histones were acid extracted as described and western blots performed on 3.5 ug histones, which were checked by Ponceau stains prior to western blot to ensure equal loading. Densitometry was performed with ImageJ software. RNA was extracted with Trizol reagent (Life Technologies) and isopropanol precipitated. Genomic DNA was purified with MasterPure DNA extraction reagents (Epicenter). Immunohistochemistry, H&E staining, and immunofluorescence on formalin-fixed, paraffin-embedded (FFPE) tissue microarray sections (TMAs) were performed according to standard procedures.

[2] = test system: glucose incorporation into lactate and nucleotides (PPP); experiment: 13C-1,2 glucose tracing by LC-HRMS; format: cell-based, human; conditions: 10 mM 13C-1,2 glucose, 36 hours
Description: Tissue samples and cell lines were previously collected from PDAC patients by rapid autopsy, sequenced-validated, and monitored for mycoplasma as previously described. Low passage (2-17) rapid autopsy cell lines were cultured at 37° C. in DMEM with 10% fetal bovine serum (FBS, Gibco). For MTT assays, 15,000 cells/well were plated into 96 well plates in triplicate, treated 12 hours later, and assayed after 24 hr (glucose responses) or 6 days (chemotherapy) with CellTiter96 (Promega). For glucose response assays, nutrient-deplete DMEM (no glucose, glutamine, pyruvate, or serum) was used with addition of glucose as indicated. […] Cells were then washed with PBS, trypsinized, and viable cells counted with a hemocytometer. Glucose uptake and lactate secretion were measured with a YSI 7100 Bioanalyzer as described in the supplementary methods. […]
LC-HRMS Metabolite Profiling. LC-HRMS samples were prepared and analyzed as described in Liu et al. (Development and quantitative evaluation of a high-resolution metabolomics technology. Anal Chem 86, 2175-84 (2014)). […] Additional replicates were also included and counted at the end of the experiment for normalization. […] Pellets were reconstituted into a volume normalized to protein content (15 uL of 1:1 acetonitrile:methanol and 15 uL of water was used per 1 mg protein) and analyzed by LC-QE-MS. […]

SMILES: NC(=O)c1ccc(N)nc1 [6AN, 6-aminonicotinamide]
- CDH2 expression (RT-PCR) ([1]; distant metastatic subclone A38Lg): selectively repressed
- TOP2B expression (RT-PCR) ([1]; lung metastatic subclone): selectively repressed
- incorporation of labeled glucose into lactate and nucleotides (metabolites downstream of the PPP) [2]: reversed the previously detected high incorporation; also recorded: reduced incorporation
